# According to a melting point compilation (Tetko et al.; mined from patent text by program, amines drawn as free bases though some values may be those of a salt):
row,Structure (SMILES),melting point
1,COC(=O)Nc1nc2cc(F)c(OC(C)c3c(Cl)cccc3Cl)cc2[nH]1 (stereo not given),240 to 245 °C
2,CNC(=O)Nc1ccc(Oc2ccc3c(c2)CCC(C)(OC)O3)cc1 (stereo not given),140 °C
3,Nc1ccc2cnn(-c3ccnc(N[C@H]4CC[C@H](O)CC4)n3)c2c1,236 to 238 °C
4,Cn1nc(-c2cnc3[nH]cc(C(=O)NC4CCOCC4)c3n2)c2ccc(Cl)cc21,355 to 358 °C
5,CN(C(=O)Nc1ccccc1)c1cccc(-c2ccc(CC3SC(=O)NC3=O)cc2)c1 (stereo not given),183 °C
6,O=C(O)c1cc(NCc2ccccc2)ccc1O,174 °C
7,Nc1cccc2c(=O)[nH]ccc12,258 to 259 °C
8,CC(C)(CO)NS(=O)(=O)c1ccc(Cl)c(NC(=O)c2cnn3c(C(F)(F)F)cc(-c4ccc(C(F)(F)F)cc4)nc23)c1,246 °C
9,CC(C(=O)O)c1ccc2oc(Nc3ccc(Cl)cc3)nc2c1 (stereo not given),206 to 208 °C
10,CN(C)C1=NS(=O)(=O)N=C1N[C@@H]1c2cc(OC(F)(F)F)ccc2OC(C)(C)[C@H]1O,135 to 140 °C
11,CC(=O)NCC1CC1c1ccc(F)c2nn(C)cc12 (stereo not given),147 to 148 °C
12,NC(=O)[C@@H]1[C@H](Nc2c(Br)cnc3[nH]c(-c4ccc(CN5CCOCC5)cc4)nc23)[C@H]2C=C[C@@H]1C2,217 to 219 °C
13,O=C(O)C(OCc1ccc(-c2ccc(Cl)cc2)cc1)c1ccc(Cl)cc1 (stereo not given),120 to 122 °C
14,O=C(Cc1ccccc1)N=C1SCCN1Cc1ccc(Cl)nc1,157 to 158 °C
15,NC(=O)c1cn(C(CO)CCc2cccc3ccccc23)cn1 (stereo not given),138 to 140 °C
16,COC(=O)CCCCCc1c(OC)cc(C(C)(C)C)c(O)c1NC(=O)NNC(=O)Nc1cc(OC)cc(C(C)(C)C)c1O,157 to 159 °C
17,CS(=O)(=O)N1CCN([C@@H](CNCS(=O)(=O)c2ccc(OCc3ccccc3)cc2)C(=O)NO)CC1,110 °C
18,CNC(=O)N(C)C(=O)N1CCN(c2ccccc2)CC1,79 to 80 °C
19,COc1ccc(CCNc2nc(N)n3nc(-c4ccco4)nc3n2)cc1,211 to 213 °C
20,O=Cc1ccc2c(ccc3c4ccccc4ccc23)c1,215 to 216 °C
21,Cc1c(CC(=O)O)c2ccccc2n1-c1ncnc2ccccc12,234 to 236 °C
22,CCS(=O)(=O)Nc1cc(-c2ncnc(C(F)(F)F)c2Cl)c(F)cc1C#N,191 to 194 °C
23,Cn1nc(N=Cc2ccccc2)nc1NCC(O)COc1cccc(CN2CCCCC2)c1 (stereo not given),53 to 57 °C
24,Cc1cc(C=Cc2ccccc2OCC2CO2)on1 (stereo not given),99 to 100 °C
25,COc1ccc(-c2nccc3c(C)cccc23)cc1,60.4 to 60.8 °C

row,Structure (SMILES),melting point
1,COC(=O)c1cc(C(=O)c2cc(C(=O)OC)c(OC)c([N+](=O)[O-])c2)cc([N+](=O)[O-])c1OC,96 to 98 °C
2,O=C(c1c[nH]c2cc(Br)ccc12)C(F)(F)F,258 to 260 °C
3,CC(O)c1cc2c(OCC(O)CN3CCC(c4ccc5ccccc5c4)CC3)cccc2o1 (stereo not given),143 to 144 °C
4,COC(=O)N=CNNc1cc(SCC(C)C)ccc1NC(C)=O,180 to 184 °C
5,Cn1c(=O)n(Cc2ccc(Cl)cc2Cl)c(=O)c2ccc(C(=O)O)cc21,308 to 310 °C
6,COC(=O)c1ccccc1Cc1cc2cc(Cl)ccc2n1S(=O)(=O)c1ccc2c(c1)C(C)(C)CO2,160 °C
7,ClCc1ncc(-c2ccccc2)c2ccccc12,101 to 102 °C
8,NCC(=O)NCc1ccc(F)cc1,114 to 115 °C
9,Cc1ccc(S(N)(=O)=O)cc1NC(=O)c1cnn2c(C(F)(F)F)cc(-c3ccc(C(F)(F)F)cc3)nc12,310 °C
10,CN(C(=O)OC(C)(C)C)c1sc(-c2cncc(F)c2)nc1I,70 to 71 °C
11,O=C(c1ccc(Cl)cc1)C1(n2cnc(Cl)n2)CC1,85 °C
12,CN1CCC2(CC1)NCc1cc(C(C)(C)C)cc(I)c1O2,155 to 156 °C
13,COC(=O)Cc1nc2nc(C)cc(Cl)n2n1,111 to 112 °C
14,COC(=O)C(=Cc1cc(OC)cc(OC)c1)c1ccc(Oc2ccc(CBr)cc2)cc1,79 to 81 °C
15,CCC(=O)Nc1ccc(C(=O)CC)cc1,154 to 155 °C
16,CN(C)C(=O)Cc1csc(NC(=O)C(Cc2ccccc2)NC(=O)OC(C)(C)C)n1 (stereo not given),139 to 140 °C
17,O=C(O)c1cc(-c2ccc3occc3c2)nn(Cc2ccc(F)cc2)c1=O,207 to 210 °C
18,Cc1c(C)c2c(c(C)c1OC(=O)c1ccccc1)SC(C)O2 (stereo not given),100 to 102 °C
19,O=C(O)Cc1cccc2c1N=C(c1ccccc1)CC2=O,238 to 240 °C
20,CCCCCC(C)C(C)c1cc(O)c2c(c1)OC(C)(C)c1ccncc1-2 (stereo not given),155 to 157 °C
21,CCOC(=O)c1cnc2c(-c3ccc(Cc4cccc(OC)c4)cc3)cnn2c1O,236 to 240 °C
22,COc1ccc2nc(NC(=O)COC(=O)c3ccccc3)sc2c1,203 to 204 °C
23,Brc1ccc(C2CC(n3ccnc3)c3ccccc3N2)cc1 (stereo not given),142 to 144 °C
24,O=c1oc(-c2ccccc2)cc(O)c1C(SCc1ccccc1)c1ccccc1 (stereo not given),189 to 191 °C
25,CN1NN=C(c2ccc3c(c2)S(=O)(=O)c2ccccc2C3=O)N1,204 to 205 °C
